The values that follow come from patent US20090311795A1, “BILATERAL CONTROL OF FUNCTIONS TRADITIONALLY REGULATED BY ONLY SEROTONIN OR ONLY DOPAMINE” (priority 2002, published 2009).

Common to all, as to assay type: in vivo, human
For one assay, the system named is urinary dopamine. Description: Urinary dopamine monoamine level assay (RIA, per gram of creatinine) under amino acid precursor dosing. The protocol:
(§1) For monoamine testing of monoamines of The System, urine is collected approximately 5 to 6 hours prior onset of the sleep cycle and just prior to any amino acid dosing the subject may or may not be taking close to that time period. Once the urine sample is obtained, laboratory assay of the monoamine of The System are performed as well as a urinary creatinine assay and the results are reported in terms of micrograms of monoamine per gram of creatinine.
(§2) Referring now to the data summarized herein, the data is from a database of subjects who have been diagnosed by a licensed healthcare provider as having one or more monoamine dysfunction(s) associated with the serotonin and/or catecholamine systems. The database fields include: • 1. The monoamine diagnosis made by a licensed healthcare provider; • 2. Amino acid dosing of amino acid precursors of the serotonin and dopamine monoamines; • 3. Laboratory assay of urinary serotonin and catecholamine monoamine levels; • 4. The subject's sex; • 5. The subject's age and date of birth; • 6. The subject's weight; • 7. The subject's height; • 8. Any allergies the subject might have; • 9. Any medications (prescription and/or non-prescription) with dosing that the subject might be taking; • 10. Type of license held by the caregiver; and • 11. The subject's state and zip code of residence.
(§3) Also referring to the summarized date, the monoamine analysis performed was subjected to the following criteria: • 1. Urinary monoamine reference ranges reported by the laboratory were determined after precision and accuracy studies had validated initial calibration results; • 2. The reported reference ranges of the laboratory performing the assays were within ±2 standard deviations of the mean for the general population used in calibration; • 3. The reported reference ranges are for adults (18 years of age and older); • 4. Urinary monoamine samples were collected at least 3 to 4 hours after a subject took a dose of amino acid precursors; • 5. Urinary monoamine samples were collected 5 to 6 hours before the onset of the sleep cycle (bed time); • 6. […]

Assay [1] concerns urinary serotonin or dopamine. Description: Phase (1, 2, 3) of urinary monoamine response to amino acid precursor dosing, from serial urinary assays. To be noted: for amino acid dosing change required to move between phase 1 and phase 3, much larger changes / amino acid dosing change that moved subjects between phase 1 and phase 3, very small changes: 5-HTP with L-Tyrosine or L-Dopa; for amino acid dosing change required to move between phase 1 and phase 3, much larger changes: other subjects; for amino acid dosing change that moved subjects between phase 1 and phase 3, very small changes: some observed subjects. The text has this:
However, according to certain embodiments, the predictability of determining an individual or group response of urinary serotonin and/or dopamine monoamine levels between two assays is possible when it is properly determined that the subject is in one of three phases of urinary monoamine response to amino acid precursor administration. As identified above, there are at least three phases (referred to as phase 1, phase 2, and phase 3) of urinary monoamine response to amino acid precursor administration. In phase 1, the urinary monoamine level drops as the total amino acid precursor dosing of serotonin and dopamine is increased. In phase 1, the urinary monoamine level increases as the total amino acid precursor dosing of serotonin and dopamine is decreased. In phase 2, the urinary monoamine level remains below the therapeutic range and relatively constant as the total amount of monoamine amino acid precursor dosing is increased or decreased. In order for urinary monoamines to be in phase 2, subtherapeutic urinary monoamine levels must exist. In phase 3, the urinary monoamine level increases as the total amount of amino acid precursor dosing is increased. In phase 3, the urinary monoamine level decreases as the total amount of amino acid precursor dosing is decreased.
In certain embodiments, the phase of the urinary monoamines in response to amino acid therapy can properly be determined by obtaining two laboratory assays on two separate days with the subject taking a different amino acid dosing of serotonin and catecholamine precursors for each test. In general, at least 7 days must elapse between amino acid dosing changes and laboratory assay, but shorter time periods may be indicated at the decision of the individual obtaining the test. The laboratory assays should also be performed on samples that are collected at least 3 to 5 days after the last change in amino acid precursor dosing or start in amino acid precursor dosing of the serotonin and dopamine monoamines. If during the first assay the subject was taking supplemental amino acid precursors of serotonin and dopamine monoamines, then it is preferable that the second assay is performed after the dosing of the supplemental amino acid precursors has changed. The change in supplemental amino acid precursor may be for the serotonin monoamine and/or the dopamine monoamine. If both of the supplemental amino acid precursors of the serotonin and dopamine monoamines are changed, it is preferable that the dosing of both supplemental amino acid precursors is increased or the dosing of both supplemental amino acid precursors is decreased. The subject also should have not missed any dosing of amino acid precursors in the 3 to 5 day period before the sample is collected.
1. Phase 1: • a. Where an increase in amino acid precursor dosing of either the serotonin amino acid precursor and/or the dopamine amino acid precursor causes a decrease in the second assay urinary serotonin or dopamine monoamine levels. • b. Where a decrease in amino acid dosing of either the serotonin amino acid precursor and/or the dopamine amino acid precursor causes an increase in the second assay urinary serotonin or dopamine monoamine levels.
2. Phase 2: • a. Where urinary serotonin and/or dopamine monoamine levels are less than the therapeutic range.
3. Phase 3: • a. Where an increase in amino acid precursor dosing of either the serotonin amino acid precursor and/or the dopamine amino acid precursor causes an increase in the second assay urinary serotonin or dopamine monoamine levels. • b. Where a decrease in the amino acid precursor dosing of either the serotonin amino acid precursor and/or the dopamine amino acid precursor causes a decrease in the second assay urinary serotonin or dopamine monoamine levels.

In the next assay the test system is urinary serotonin. Description: Urinary serotonin monoamine level assay (ELISA, per gram of creatinine) under amino acid precursor dosing. How it is done:
as §1, §2, §3
On the technique in general: In an ELISA, binding on a coated surface is turned into a signal by an enzyme label.

The structures appear in SMILES notation.

With `N[C@@H](Cc1c[nH]c2ccc(O)cc12)C(=O)O` [5-HTP, 5-hydroxytryptophan], the “excretion of dopamine in phase 3 by the kidneys” value with urinary dopamine (administration of 5-HTP alone) is recorded as “marked increase”. In assay [1], the “amino acid dosing change required to move between phase 1 and phase 3, much larger changes” value (“amino acid dosing change required” for short) came out at 900 mg; the “amino acid dosing change that moved subjects between phase 1 and phase 3, very small changes” value worked out at 37.5 mg. For the same compound, the “5-HTP dosing giving phase 3 therapeutic urinary serotonin level” value in assay [1] (Example 4, final assay, tyrosine increased) came out at 150 mg per day. In assay [1] (Example 6, between test 1 and test 2), the “change of 5-HTP dosing that moved urinary serotonin levels from phase 3 to phase 1” value came to 150 mg per day. For the same compound, in assay [1] (dose-response curve of one embodiment, urinary serotonin, balanced amino acids), the “daily dosing at which the phase 2/phase 3 inflection point occurs” value was “approximately 800 milligrams per day”. Moreover, in assay [1] (subjects who experience the inflection point at low dose), the “daily dosing at the phase 2/phase 3 inflection point, low-dose subjects” value is 50 milligrams per day. Also, in assay [1] (subjects without inflection point until this dose per day), the “daily dosing at the phase 2/phase 3 inflection point, high-dose subjects” value is given as 1,500 milligrams.
Consider `N[C@@H](Cc1ccc(O)cc1)C(=O)O` [L-Tyrosine], for which the “urinary serotonin levels on the second laboratory assay” value in the assay on urinary serotonin (Example 1, one subject, increase in tyrosine) was “marked increase”. Moreover, the “change in urinary dopamine levels” value in the assay with urinary dopamine (Example 1, one subject, increase in tyrosine, dopamine subtherapeutic) was “without much change”. In addition, the “highest urinary dopamine established in phase 3 by administration of tyrosine” value in the assay on urinary dopamine (phase 3, tyrosine as dopamine precursor) is on record as ≤ 475 micrograms of dopamine per gram of creatinine. Besides, in assay [1], the “amino acid dosing change required” value was 5,000 mg; the “amino acid dosing change that moved subjects between phase 1 and phase 3, very small changes” value turned out to be 375 mg.
As to `N[C@@H](Cc1ccc(O)c(O)c1)C(=O)O` [L-dopa, 1-3,4-dihydroxyphenylalanine, reference compound], the urinary serotonin level result in the assay with urinary serotonin (Example 2, one subject, increase in L-dopa between first and third assay) is on record as “increased”. The “urinary excretion of serotonin in phase 3” value with urinary serotonin (addition of unopposed L-dopa) is reported as “increases markedly”. Besides, in assay [1], the “amino acid dosing change required” value was determined as 900 mg; the “amino acid dosing change that moved subjects between phase 1 and phase 3, very small changes” value is on record as 60 mg.
